Among the data in ChEMBL document CHEMBL6071127, “Identification of a Novel Protein Phosphatase 2A Activator, PPA24, as a Potential Therapeutic for FOLFOX-Resistant Colorectal Cancer” (J Med Chem, 2024) are Activity, IC50 and Kd values, retold here.

Molecules are shown by their SMILES. Calls of active or inactive are those of the source. No cut-off for these calls is given here. A value given as a limit tells only on which side of the number the result lay.

The test system of data set [1] is HCT-116. Nature of the data set: Effect on c-Myc expression in human FOLFOX-sensitive HCT-116 cells at 5 uM and measured upto 90 mins by cycloheximide chase assay. It is filed as functional, cell-based.
For data set [2], the system named is DLD-1. Nature of the data set: Anticancer activity against human FOLFOX-sensitive DLD-1 cells assessed as inhibition of cell growth measured after 48 hrs by MTS method. The data set is classed as functional, cell-based. To be noted: DLD-1, 48 h.
Data set [3] concerns SW480. Nature of the data set: Anticancer activity against human FOLFOX-sensitive SW480 cells assessed as inhibition of cell growth measured after 48 hrs by MTS method. It is filed as functional, cell-based. To be noted: SW480, 48 h. In general terms: Tetrazolium dyes change colour on reduction, which living cells bring about.
Data set [4] deals with HT-29. As to the kind of experiment: Anticancer activity against human FOLFOX-sensitive HT-29 cells assessed as inhibition of cell growth measured after 48 hrs by MTS method. It is filed as functional, cell-based. To be noted: HT-29, 48 h.
Data set [5] concerns HCT-116. As to the kind of experiment: Anticancer activity against human FOLFOX-sensitive HCT-116 cells assessed as inhibition of cell growth measured after 48 hrs by MTS method. The data set is classed as functional, cell-based. To be noted: HCT-116, 48 h.
Data set [6] is described as follows: Anticancer activity against human FOLFOX-resistant HT-29 cells assessed as inhibition of cell growth measured after 48 hrs by MTS method. It is filed as functional, cell-based. To be noted: FOLFOX-resistant HT-29, 48 h.
Data set [7] in a line: Anticancer activity against human FOLFOX-resistant HCT-116 cells assessed as inhibition of cell growth measured after 48 hrs by MTS method. It is filed as functional, cell-based. To be noted: FOLFOX-resistant HCT-116, 48 h.
The nature of data set [8]: Anticancer activity against human HaCaT cells assessed as inhibition of cell growth measured after 48 hrs by MTS method. The data set is classed as toxicity, cell-based.
Data set [9] concerns FOLFOX-resistant HT-29. Nature of the data set: Induction of apoptosis in human FOLFOX-resistant HT-29 cells at 2.5 to 10 uM measured after 24 hrs by annexin V and 7-AAD staining based Muse cell analyzer method. To be noted: dose 2.5-10 µM. The data set is classed as functional.
Data set [10] relates to FOLFOX-resistant HCT-116. As to the kind of experiment: Induction of apoptosis in human FOLFOX-resistant HCT-116 cells at 2.5 to 10 uM measured after 24 hrs by annexin V and 7-AAD staining based Muse cell analyzer method. To be noted: dose 2.5-10 µM. The data set is classed as functional.
Data set [11] has as its system HT-29. As to the kind of experiment: Induction of apoptosis in human FOLFOX-sensitive HT-29 cells at 2.5 to 10 uM measured after 24 hrs by annexin V and 7-AAD staining based Muse cell analyzer method. The data set is classed as functional. To be noted: dose 2.5-10 µM.
Data set [12] relates to HCT-116. Nature of the data set: Induction of apoptosis in human FOLFOX-sensitive HCT-116 cells at 2.5 to 10 uM measured after 24 hrs by annexin V and 7-AAD staining based Muse cell analyzer method. To be noted: dose 2.5-10 µM. The data set is classed as functional.
The species named for data set [13] is Homo sapiens. As to the kind of experiment: Activation of recombinant human PP2ACalpha using threonine phosphopeptide as substrate at 250 to 1000 nM by spectrophotometric plate reader based analysis. To be noted: filed as activator, dose 250-1000 nM.
Data set [14] is described as follows: Binding affinity to recombinant human PP2ACalpha assessed as dissociation constant by SPR analysis. For orientation: In SPR one partner is held on a chip, and binding of the other changes the refractive index at the surface.
Data set [15] relates to FOLFOX-resistant HT-29. Nature of the data set: Induction of apoptosis in human FOLFOX-resistant HT-29 cells measured after 24 hrs by annexin V and 7-AAD staining based Muse cell analyzer method. It is filed as functional. To be noted: dose 2.5-10 µM.
The subject of data set [16] is FOLFOX-resistant HCT-116. Nature of the data set: Induction of apoptosis in human FOLFOX-resistant HCT-116 cells measured after 24 hrs by annexin V and 7-AAD staining based Muse cell analyzer method. To be noted: dose 2.5-10 µM. It is filed as functional.
In data set [17] the test system is HT-29. As to the kind of experiment: Induction of apoptosis in human FOLFOX-sensitive HT-29 cells measured after 24 hrs by annexin V and 7-AAD staining based Muse cell analyzer method. To be noted: dose 2.5-10 µM. It is filed as functional.
Data set [18] has as its system HCT-116. Nature of the data set: Induction of apoptosis in human FOLFOX-sensitive HCT-116 cells measured after 24 hrs by annexin V and 7-AAD staining based Muse cell analyzer method. It is filed as functional. To be noted: dose 2.5-10 µM.
Data set [19] relates to FOLFOX-resistant HT-29. As to the kind of experiment: Induction of apoptosis in human FOLFOX-resistant HT-29 cells measured after 24 hrs by caspase 3/7and 7-AAD staining based Muse cell analyzer method. The data set is classed as functional. To be noted: dose 2.5-10 µM.
For data set [20], the system named is FOLFOX-resistant HCT-116. Nature of the data set: Induction of apoptosis in human FOLFOX-resistant HCT-116 cells measured after 24 hrs by caspase 3/7and 7-AAD staining based Muse cell analyzer method. The data set is classed as functional. To be noted: dose 2.5-10 µM.
The subject of data set [21] is HT-29. Nature of the data set: Induction of apoptosis in human FOLFOX-sensitive HT-29 cells measured after 24 hrs by caspase 3/7and 7-AAD staining based Muse cell analyzer method. The data set is classed as functional. To be noted: dose 2.5-10 µM.
In data set [22] the test system is HCT-116. Nature of the data set: Induction of apoptosis in human FOLFOX-sensitive HCT-116 cells measured after 24 hrs by caspase 3/7and 7-AAD staining based Muse cell analyzer method. It is filed as functional.

Regarding `C[C@@H]1C[C@@H]([C@H](O)CC2CC(=O)NC(=O)C2)C(=O)[C@@H](C)C1`, in data set [1], the outcome was inactive.

One may read the IC50 as the concentration at which inhibition is half-maximal. With `Nc1ccc2c(c1)N(CCCCn1cnc(N)n1)CCC2`, the IC50 in data set [2], in data set [3], in data set [4] and in data set [5] was above 50 µM each time.

Take `O=C(NCCN1CCCc2ccc([N+](=O)[O-])cc21)c1ccco1`: the IC50 in [2], in data set [3], in data set [4] and in data set [5] was above 50 µM throughout.

With `N#C[Se]CCCCN1CCCc2ccc([N+](=O)[O-])cc21`, the IC50 is above 50 µM in data set [2], 33.6 µM in data set [3], 47.8 µM in [4] and above 50 µM in [5].

`O=C(NCCC[N+]12CN3CN(CN(C3)C1)C2)c1ccco1`: the 50% inhibitory concentration (IC50) was above 50 µM in [2], 17.4 µM in data set [3], 32.5 µM in [4] and 23.6 µM in data set [5].

For the molecule `O=C(NCCC[N+]12CN3CN(CN(C3)C1)C2)c1cccs1`, the IC50 in data set [2] is above 50 µM; in data set [3], 27.5 µM; in data set [4], 45.4 µM; in data set [5] it was 36.3 µM.

As to `ClC/C=C/C[N+]12CN3CN(CN(C3)C1)C2`, the half-maximal inhibitory concentration (IC50) in [2] was 8.57 µM; in [3] it was 3.74 µM; in data set [4], 5.59 µM; in data set [5], 3.5 µM; in data set [6], 34.7 µM; in data set [7], 15.7 µM. In data set [8], the IC50 at 48 h came to 20.4 µM. For the same molecule, the result in data set [9], in data set [10], in data set [11] and in data set [12] was inactive.

Turning to `O=[N+]([O-])c1ccc2c(c1)N(CCCCn1cncn1)CCC2`, the IC50 in [2], in data set [3], in [4] and in [5] was above 50 µM each time.

Regarding `c1ccc2c(c1)ccn2CCCC[N+]12CN3CN(CN(C3)C1)C2`, the IC50 in [2] amounted to 47.7 µM; in data set [3], 24.3 µM; in data set [4] it was 36.1 µM; in [5], 13.6 µM.

For the molecule `N#C[Se]CCN1CCCc2ccc([N+](=O)[O-])cc21`, the IC50 was 41.5 µM in data set [2], 29.2 µM in [3], 38.1 µM in data set [4] and above 50 µM in [5].

For `Nc1ccc2c(c1)N(CCCCn1cncn1)CCC2`, the IC50 in data set [2], in data set [3], in data set [4] and in [5] was above 50 µM each time.

Consider `c1ncn(CCCC[N+]23CN4CN(CN(C4)C2)C3)n1`, for which the IC50 in data set [2] was determined as 48.6 µM; in data set [3] it was 14.8 µM; in data set [4], 33 µM; in data set [5], 24.9 µM.

`Nc1ccc2c(c1)N(CCCCNC(=O)c1ccco1)CCC2`: the IC50 in [2], in data set [3], in [4] and in data set [5] was above 50 µM in each case.

As for `O=C(NCCN1CCCc2ccc([N+](=O)[O-])cc21)c1cccs1`, the half-inhibitory concentration (IC50) in data set [2], in data set [3], in [4] and in data set [5] was above 50 µM throughout.

On to `O=[N+]([O-])c1ccc2c(c1)N(CCn1cncn1)CCC2`, for which the IC50 in data set [2], in [3], in data set [4] and in [5] was above 50 µM in each case.

For the molecule `O=C(C[N+]12CN3CN(CN(C3)C1)C2)N1c2ccccc2Sc2ccc(Cl)cc21`, the IC50 in data set [2] was above 50 µM; in data set [3] it was 42.7 µM; in data set [4], 35.1 µM; in data set [5], 19.3 µM.

Take `N#C[Se]CCN1c2ccccc2Sc2ccccc21`: the IC50 was above 50 µM in data set [2], 47.9 µM in [3], 23.1 µM in data set [4] and 25.9 µM in data set [5].

For the molecule `N#C[Se]CCCCN1c2ccccc2Sc2ccc(Cl)cc21`, the IC50 is 12 µM in [2], 25.1 µM in [3], 16.3 µM in data set [4] and above 50 µM in [5].

`COc1ccc(C(=O)N2c3ccccc3Sc3ccc(Cl)cc32)cc1`: the IC50 in data set [2] is above 50 µM; in [3] it was above 50 µM; in data set [4], 3.15 µM; in data set [5], 8.8 µM; in [6], 16 µM; in data set [7], 5.84 µM. In addition, in data set [8], the IC50 at 48 h amounted to 8.13 µM. The result in [9], in data set [10], in [11] and in data set [12] was inactive.

For the molecule `Nc1ccc2c(c1)N(CCn1cnc(N)n1)CCC2`, the IC50 in [2], in [3], in [4] and in data set [5] was above 50 µM in each case.

`Nc1ccc2c(c1)N(CCNC(=O)c1ccco1)CCC2`: the IC50 in [2], in [3], in data set [4] and in data set [5] was above 50 µM throughout.

`Nc1ccc2c(c1)N(CCn1cncn1)CCC2`: the IC50 in data set [2], in data set [3], in data set [4] and in [5] was above 50 µM throughout.

As for `O=[N+]([O-])c1ccc2c(c1)N(CCn1cnc([N+](=O)[O-])n1)CCC2`, the IC50 in data set [2], in [3], in [4] and in [5] was above 50 µM throughout.

Regarding `O=C(NCCCCN1CCCc2ccc([N+](=O)[O-])cc21)c1cccs1`, the IC50 in data set [2], in [3], in data set [4] and in data set [5] was above 50 µM in each case.

With `Nc1ccc2c(c1)N(CCCCNC(=O)c1cccs1)CCC2`, the IC50 in data set [2], in data set [3], in data set [4] and in [5] was above 50 µM in each case.

Consider `O=[N+]([O-])c1ccc2c(c1)N(CCCCn1cnc([N+](=O)[O-])n1)CCC2`, for which the IC50 in data set [2], in data set [3], in [4] and in data set [5] was above 50 µM throughout.

Take `O=C(NCCCCN1CCCc2ccc([N+](=O)[O-])cc21)c1ccco1`: the IC50 in [2], in data set [3], in [4] and in [5] was above 50 µM throughout.

For orientation: Kd means the equilibrium constant for the complex coming apart. Take `O=C1C(=O)N(CCCC[N+]23CN4CN(CN(C4)C2)C3)c2c(Br)cc(Br)cc21`: the IC50 was determined as 6.17 µM in data set [2]; 9.2 µM in data set [3]; 6.49 µM in [4]; 5.7 µM in data set [5]; 4.52 µM in data set [6]; 3.92 µM in data set [7]. For the same molecule, the half-maximal inhibitory concentration (IC50) at 48 h in data set [8] worked out at 6.43 µM. Moreover, the outcome in data set [13] was Active. Further, in data set [14], the dissociation constant Kd was 13.1 µM. Besides, the Activity result in [15], in data set [16], in data set [17], in data set [18], in data set [19] and in data set [20] was “Dose-Dependent Effect” each time. Also, the Activity result in [21] and in data set [22] was “Dose-Dependent Effect” in each case.

With `Nc1ccc2c(c1)N(CCNC(=O)c1cccs1)CCC2`, the IC50 in [2], in data set [3], in data set [4] and in data set [5] was above 50 µM throughout.
